Data taken from PMC6211260 (Journal of Enzyme Inhibition and Medicinal Chemistry, 2018).

Key:
NCI-60 cell line panel = assay: NCI-60 single-dose (10 µM) antiproliferative screening, mean over panel; format: cell-based; details: single-dose 10 µM
Experimental: (§1) Screening against the cancer cell lines was carried out at the National Cancer Institute (NCI, Bethesda, Maryland, USA) applying the standard protocol of the NCI[22].
(§2) The final target compounds were submitted to the National Cancer Institute (NCI), Maryland, USA[23]. Thirty-one compounds were selected to be tested over 60 cell lines at single dose 10 µM.

[1] = test system: Colo 205 colon cancer cell line; assay: NCI-60 single-dose screening; format: cell-based; details: 10 µM
Experimental: as §1, §2

[2] = test system: HCC-2998 colon cancer cell line; assay: NCI-60 single-dose screening; format: cell-based; details: 10 µM
Experimental: as §1, §2

[3] = test system: LOX IMVI melanoma cell line; assay: NCI-60 single-dose screening; format: cell-based; details: 10 µM
Experimental: as §1, §2

[4] = test system: SF-295 CNS cancer cell line; assay: NCI-60 single-dose screening; format: cell-based; details: 10 µM
Experimental: as §1, §2

[5] = test system: SK-MEL-28 melanoma cell line; assay: NCI-60 single-dose screening; format: cell-based; details: 10 µM
Experimental: as §1, §2

[6] = test system: SK-MEL-5 melanoma cell line; assay: NCI-60 single-dose screening; format: cell-based; details: 10 µM
Experimental: as §1, §2

CNS cancer cell lines = assay: NCI five-dose testing, subpanel mean; format: cell-based; details: subpanel IV: CNS cancer
Experimental: as §1

Leukaemia cell lines = assay: NCI five-dose testing, subpanel mean; format: cell-based; details: subpanel I: Leukaemia
Experimental: as §1

breast cancer cell lines = assay: NCI five-dose testing, subpanel mean; format: cell-based; details: subpanel IX: breast cancer
Experimental: as §1

colon cancer cell lines = assay: NCI five-dose testing, subpanel mean; format: cell-based; details: subpanel III: colon cancer
Experimental: as §1

melanoma cell lines = assay: NCI five-dose testing, subpanel mean; format: cell-based; details: subpanel V: melanoma
Experimental: as §1

[7] = test system: non-small cell lung cancer cell lines; assay: NCI five-dose testing, subpanel mean; format: cell-based; details: subpanel II: non-small cell lung cancer
Experimental: as §1

[8] = test system: ovarian cancer cell lines; assay: NCI five-dose testing, subpanel mean; format: cell-based; details: subpanel VI: ovarian cancer
Experimental: as §1

[9] = test system: prostate cancer cell lines; assay: NCI five-dose testing, subpanel mean; format: cell-based; details: subpanel VIII: prostate cancer
Experimental: as §1

renal cancer cell lines = assay: NCI five-dose testing, subpanel mean; format: cell-based; details: subpanel VII: renal cancer
Experimental: as §1

[10] = test system: A498 renal cancer cell line; assay: NCI five-dose testing; format: cell-based; details: A498
Experimental: as §1

[11] = test system: HOP-92 non-small cell lung cancer cell line; assay: NCI five-dose testing; format: cell-based; details: HOP-92
Experimental: as §1

[12] = test system: HT-29 colon cancer cell line; assay: NCI five-dose testing; format: cell-based; details: HT-29
Experimental: as §1

[13] = test system: K-562 leukaemia cell line; assay: NCI five-dose testing; format: cell-based; details: K-562
Experimental: as §1

[14] = test system: MDA-MB-468 breast cancer cell line; assay: NCI five-dose testing; format: cell-based; details: MDA-MB-468
Experimental: as §1

[15] = test system: OVCAR-4 ovarian cancer cell line; assay: NCI five-dose testing; format: cell-based; details: OVCAR-4
Experimental: as §1

[16] = test system: PC-3 prostate cancer cell line; assay: NCI five-dose testing; format: cell-based; details: PC-3
Experimental: as §1

[17] = test system: SK-MEL-5 melanoma cell line; assay: NCI five-dose testing; format: cell-based; details: SK-MEL-5
Experimental: as §1

[18] = test system: U251 CNS cancer cell line; assay: NCI five-dose testing; format: cell-based; details: U251
Experimental: as §1

MKK6 = target: T1, MKK6 (Homo sapiens, UniProt P52564); assay: In vitro kinase screening (Kinase HotSpot); format: biochemical; details: single dose of 10 µM
T1 construct: purchased Reaction Biology Corp
T1 sequence (P52564 whole entry): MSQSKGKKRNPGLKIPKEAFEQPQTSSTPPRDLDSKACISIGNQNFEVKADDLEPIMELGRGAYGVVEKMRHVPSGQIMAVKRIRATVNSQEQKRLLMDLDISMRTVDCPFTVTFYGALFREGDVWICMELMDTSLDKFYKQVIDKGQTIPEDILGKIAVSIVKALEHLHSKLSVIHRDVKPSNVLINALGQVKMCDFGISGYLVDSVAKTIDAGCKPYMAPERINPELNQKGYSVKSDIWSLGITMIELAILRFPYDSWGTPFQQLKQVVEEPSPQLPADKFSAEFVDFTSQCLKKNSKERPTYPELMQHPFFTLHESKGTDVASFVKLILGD
Text: (§3) To investigate the biological target of compound, Reaction Biology Corp. Kinase HotSpotSM service was used adopting standard assay protocol.

RAF1 = target: T2, RAF1 (Homo sapiens, UniProt P04049); assay: In vitro kinase screening (Kinase HotSpot); format: biochemical
T2 construct: purchased Reaction Biology Corp
T2 sequence (P04049 whole entry): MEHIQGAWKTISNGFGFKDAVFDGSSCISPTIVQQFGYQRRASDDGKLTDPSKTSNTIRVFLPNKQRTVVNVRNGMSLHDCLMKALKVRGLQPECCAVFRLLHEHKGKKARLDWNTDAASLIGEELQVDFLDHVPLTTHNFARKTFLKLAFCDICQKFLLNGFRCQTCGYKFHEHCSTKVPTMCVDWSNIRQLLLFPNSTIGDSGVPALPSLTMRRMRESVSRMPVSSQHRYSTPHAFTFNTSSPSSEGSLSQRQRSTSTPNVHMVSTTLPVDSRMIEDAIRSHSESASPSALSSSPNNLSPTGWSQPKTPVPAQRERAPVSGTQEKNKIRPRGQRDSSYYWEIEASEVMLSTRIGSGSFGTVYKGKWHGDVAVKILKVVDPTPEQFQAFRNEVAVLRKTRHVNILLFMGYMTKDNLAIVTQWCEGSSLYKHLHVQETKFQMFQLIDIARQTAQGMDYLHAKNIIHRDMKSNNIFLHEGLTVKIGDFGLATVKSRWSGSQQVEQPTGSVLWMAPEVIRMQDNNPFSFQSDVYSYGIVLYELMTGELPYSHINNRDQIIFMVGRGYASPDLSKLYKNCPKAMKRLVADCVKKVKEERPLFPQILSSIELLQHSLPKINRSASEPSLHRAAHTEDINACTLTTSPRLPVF
Text: as §3

hERG = target: T3, hERG (Homo sapiens, UniProt Q12809); assay: hERG binding assay (hERG Fluorescence Polarization Assay)
T3 construct: purchased Invitrogen PV5365
T3 sequence (Q12809 whole entry): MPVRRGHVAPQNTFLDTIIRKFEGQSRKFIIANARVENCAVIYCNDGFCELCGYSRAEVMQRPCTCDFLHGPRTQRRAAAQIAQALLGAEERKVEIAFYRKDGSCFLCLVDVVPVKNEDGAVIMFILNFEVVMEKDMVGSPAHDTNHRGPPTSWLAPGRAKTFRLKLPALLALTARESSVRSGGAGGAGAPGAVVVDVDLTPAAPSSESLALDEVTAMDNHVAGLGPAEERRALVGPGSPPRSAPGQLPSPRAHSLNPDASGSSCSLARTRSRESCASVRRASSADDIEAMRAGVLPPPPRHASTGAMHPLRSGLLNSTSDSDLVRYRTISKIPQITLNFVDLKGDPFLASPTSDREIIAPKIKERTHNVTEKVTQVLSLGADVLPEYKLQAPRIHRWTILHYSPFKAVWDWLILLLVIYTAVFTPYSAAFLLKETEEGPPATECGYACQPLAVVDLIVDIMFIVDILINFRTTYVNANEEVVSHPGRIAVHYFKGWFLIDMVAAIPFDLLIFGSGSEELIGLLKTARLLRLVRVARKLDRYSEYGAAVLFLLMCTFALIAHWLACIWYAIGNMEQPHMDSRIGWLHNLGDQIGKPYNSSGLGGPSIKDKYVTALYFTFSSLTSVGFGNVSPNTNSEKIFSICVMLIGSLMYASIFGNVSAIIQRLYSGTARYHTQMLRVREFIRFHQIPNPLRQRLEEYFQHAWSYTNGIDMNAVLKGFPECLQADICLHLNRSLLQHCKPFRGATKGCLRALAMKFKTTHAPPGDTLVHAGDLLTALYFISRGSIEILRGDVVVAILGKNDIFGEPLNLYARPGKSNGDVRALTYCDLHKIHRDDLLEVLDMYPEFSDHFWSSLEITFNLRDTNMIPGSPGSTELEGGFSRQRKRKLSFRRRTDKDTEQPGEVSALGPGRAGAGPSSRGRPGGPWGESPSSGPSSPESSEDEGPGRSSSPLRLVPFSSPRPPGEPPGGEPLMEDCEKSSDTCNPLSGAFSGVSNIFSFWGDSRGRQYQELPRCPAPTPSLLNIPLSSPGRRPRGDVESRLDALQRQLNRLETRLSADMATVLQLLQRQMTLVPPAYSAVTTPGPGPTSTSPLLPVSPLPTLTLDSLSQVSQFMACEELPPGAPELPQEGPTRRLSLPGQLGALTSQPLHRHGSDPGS
Experimental: hERG binding assay was performed using hERG Fluorescence Polarization Assay (Invitrogen: PV5365) assay kit and Synergy Neo (Biotek) and standard procedures were applied.

[19] = In vivo pharmacokinetic assay; details: SD rats, 10 mg/kg, mean, N = 3
Experimental: Serum samples were collected each 30 min. The blood concentration of the test compounds was determined by LC-MS/MS (Agilent 1290 infinity II series equipped with on-line degasser, binary pump, thermostatted well-plate autosampler and column compartment, Waters Atlantis® HSS T3 (2.1 × 100 mm, 1.9 µm) column, and mobile phase linear gradient from 95% A (0.1% formic acid in water) /5% B (0.1% formic acid in acetonitrile) to 5% A/95% B, 6500+ QTRAP LC-MS/MS/MS system, Turbo Spray Ion Drive as ion source, and Carbamazepine as internal standard. Pharmacokinetic parameters were obtained by non-compartmental analysis of the plasma concentration–time profiles using KineticaTM 4.4.1 (Thermo Fisher Scientific, Inc., Woburn, MA, USA).

[20] = read-out: TGI (total growth inhibition concentration)

Q: With `O=S(=O)(NCCCNc1cc(-c2cn(-c3ccccc3)nc2-c2cccc(O)c2)ccn1)c1ccc(Cl)cc1` [Compound 2l, 4-Chloro-N-(3-((4-(3-(3-hydroxyphenyl)-1-phenyl-1H-pyrazol-4-yl)pyridin-2-yl)amino)propyl) benzenesulfonamide] as the molecule, how does the Mean % inhibition (NCI-60 cell line panel; 60-cancer cell line screening) read?
A: 97.80%

Q: And the “number of cell lines with more than 100% inhibition” value (NCI-60 cell line panel; NCI-60 panel)?
A: 24

Q: And the per cent inhibition [1]?
A: 170.28%

Q: And the per cent inhibition [2]?
A: 162.39%

Q: And the per cent inhibition [3]?
A: 129.50%

Q: What about the per cent inhibition [4] of the same molecule?
A: 155.19%

Q: What about the per cent inhibition [5] of the same molecule?
A: 136.19%

Q: What about the per cent inhibition [6] of the same molecule?
A: 156.35%

Q: And the IC50 (CNS cancer cell lines)?
A: 1650 nM

Q: What about the IC50 (Leukaemia cell lines) of the same molecule?
A: 1440 nM

Q: And the IC50 (breast cancer cell lines)?
A: 1580 nM

Q: And the IC50 (colon cancer cell lines)?
A: 1510 nM

Q: And the IC50 (melanoma cell lines)?
A: 1680 nM

Q: What about the IC50 [7] of the same molecule?
A: 2320 nM

Q: What about the IC50 [8] of the same molecule?
A: 2090 nM

Q: And the IC50 [9]?
A: 2280 nM

Q: What about the IC50 (renal cancer cell lines) of the same molecule?
A: 2060 nM

Q: What about the IC50 [10] of the same molecule?
A: 330 nM

Q: And the “LD50 (lethal dose 50)” value [10]?
A: 6.9 µM

Q: And the IC (TGI) [10, 20]?
A: 2200 nM

Q: What about the IC50 [11] of the same molecule?
A: 1520 nM

Q: What about the “LD50 (lethal dose 50)” value [11] of the same molecule?
A: 93.2 µM

Q: And the IC (TGI) [11, 20]?
A: 4700 nM

Q: And the “LD50 (lethal dose 50)” value [12]?
A: 4.7 µM

Q: And the IC50 ([12]; read-out: IC50)?
A: 470 nM

Q: What about the IC (TGI) [12, 20] of the same molecule?
A: 1700 nM

Q: What about the IC50 [13] of the same molecule?
A: 430 nM

Q: What about the “LD50 (lethal dose 50)” value [13] of the same molecule?
A: >100 µM

Q: What about the IC (TGI) [13, 20] of the same molecule?
A: 2500 nM

Q: What about the IC50 [14] of the same molecule?
A: 1160 nM

Q: And the “LD50 (lethal dose 50)” value [14]?
A: >100 µM

Q: What about the IC (TGI) [14, 20] of the same molecule?
A: 4600 nM

Q: And the IC50 [15]?
A: 1670 nM

Q: And the “LD50 (lethal dose 50)” value [15]?
A: >100 µM

Q: What about the IC (TGI) [15, 20] of the same molecule?
A: 5900 nM

Q: What about the “LD50 (lethal dose 50)” value [16] of the same molecule?
A: >100 µM

Q: And the IC50 ([16]; read-out: IC50)?
A: 1740 nM

Q: And the IC (TGI) [16, 20]?
A: 6100 nM

Q: And the IC50 [17]?
A: 1230 nM

Q: And the “LD50 (lethal dose 50)” value [17]?
A: 5.3 µM

Q: And the IC (TGI) [17, 20]?
A: 2500 nM

Q: What about the “LD50 (lethal dose 50)” value [18] of the same molecule?
A: 8.8 µM

Q: What about the IC50 ([18]; read-out: IC50) of the same molecule?
A: 1350 nM

Q: And the IC (TGI) [18, 20]?
A: 3400 nM

Q: And the Inhibition % (MKK6)?
A: 16.65 ± 0.11%

Q: And the IC50 (RAF1)?
A: 3520 ± 10 nM

Q: What about the IC50 (hERG) of the same molecule?
A: 8280 nM

Q: And the AUCinf ([19]; IV)?
A: 1478.2 ng·h/mL

Q: And the AUClast ([19]; IV)?
A: 1471.6 ng·h/mL

Q: What about the CL ([19]; IV) of the same molecule?
A: 113 mL/min/kg

Q: And the t1/2 ([19]; IV)?
A: 5.8 h

Q: What about the AUCinf ([19]; PO) of the same molecule?
A: 142.1 ng·h/mL

Q: What about the AUClast ([19]; PO) of the same molecule?
A: 136.0 ng·h/mL

Q: What about the Cmax ([19]; PO) of the same molecule?
A: 36.6 ng/mL

Q: And the “F (oral bioavailability)” value ([19]; PO)?
A: 9.2%

Q: What about the Tmax ([19]; PO) of the same molecule?
A: 0.5 h

Q: And the t1/2 ([19]; PO)?
A: 6.1 h
